{
  "source": "patent US9578878B2",
  "about": "“Antimicrobial efficacy of an oregano oil and caprylic acid blend” (Kemin Industries, Inc., priority 2014, dated 2017)",
  "key": {"[1]": {"test_system": "Escherichia coli (ATCC #8739)", "test": "Microtiter assay, MIC to inhibit 90% growth", "assay_type": "cell-based", "settings": "24 hours, n = 3", "method": "(§1) For assays to find minimum inhibitory concentrations, all treatments were diluted in 10% DMSO and 0.5% Tween 80 to stabilize the samples.\n(§2) Microorganisms Escherichia coli (ATCC #8739), Streptococcus sanguinis (ATCC #BAA-1455), Salmonella enteria subsp. enterica (ex Kauffmann and Edwards) Le Minor and Popoff serovar Typhimurium (ATCC #14028), Staphylococcus aureus (ATCC #6538), Pseudomonas aeruginosa (ATCC #9027), and Candida albicans (ATCC #10231) were obtained from a −80° C. internal stock culture. Aspergillus brasiliensis (ATCC #16404) was obtained from an internal stock solution culture stored at 4° C. E. coli, S. enterica S. aureus, and P. aeruginosa were grown in tryptic soy broth (TSB) and incubated at 37° C. for 24 h. S. sanguinis was grown in brain heart infusion broth (BHI). A. brasiliensis was plated on Sabourand dextrose agar (SDA) and incubated at 25° C. for 5-7 days. C. albicans was grown in Sabourand dextrose broth (SDB) and incubated at 25° C. for 48 h.\n(§3) A. brasiliensis was harvested by adding 18 mL sterile saline to the plate and agitating the mold from the agar with a sterile inoculating loop. The inoculum was collected upon agitation. All suspended microbes were diluted with the same type of broth media used to grow each organism until an inoculum in the range of 10^6 CFU/mL was achieved. The inoculum concentration was determined by plate count method. Each strain was identified by plating on the appropriate growth media, E. coli, S. aureus, and P. aeruginosa on tryptic soy agar (Bacto, BD Sciences, Manassas, Va.) and C. albicans and A. brasiliensis on Sabrouand dextrose agar, to ensure there was no contamination of the inoculum.\n(§4) Microtiter Assay. A microtiter assay was completed E. coli, S. aureus, P. aeruginosa, S. enteria, S. sanguinis, and C. albicans. Briefly, 10^6 cfu/ml preparations of each organism were made and enumerated using a Petroff-Hausser counting chamber. A 100 μl aliquot of the inoculums was dispensed into microtiter plate wells and a 100 μl aliquot of treatment was dispensed into the same wells. Two separate set of wells were prepared as positive and negative controls, with the positive wells containing 100 μl test organism in growth media and 100 μl sterile phosphate buffer and with the negative control wells containing 100 μl of the same growth media and 100 μl sterile phosphate buffer. The plates were incubated overnight at the appropriate temperature for each organism. A plate reader was used to track the kinetic growth curve using 405 nm and […]. The last time point at 24 hours was averaged and used to determine MIC90. Each treatment was conducted in triplicate wells."}, "[2]": {"test_system": "Candida albicans (ATCC #10231)", "test": "Microtiter assay, MIC to inhibit 90% growth", "assay_type": "cell-based", "settings": "24 hours, n = 3", "method": "as §1, §2, §3, §4"}, "[3]": {"test_system": "Staphylococcus aureus (ATCC #6538)", "test": "Microtiter assay, MIC to inhibit 90% growth", "assay_type": "cell-based", "settings": "24 hours, n = 3", "method": "as §1, §2, §3, §4"}, "[4]": {"test_system": "Pseudomonas aeruginosa (ATCC #9027)", "test": "Microtiter assay, MIC to inhibit 90% growth", "assay_type": "cell-based", "settings": "24 hours, n = 3", "method": "as §1, §2, §3, §4"}, "[5]": {"test_system": "Streptococcus sanguinis (ATCC #BAA-1455)", "test": "Microtiter assay, MIC to inhibit 90% growth", "assay_type": "cell-based", "settings": "24 hours, n = 3", "method": "as §1, §2, §3, §4"}, "Salmonella enterica": {"test_system": "Salmonella enterica", "test": "Microtiter assay, MIC to inhibit 90% growth", "assay_type": "cell-based", "settings": "24 hours, n = 3", "method": "as §1, §2, §3, §4"}, "A. brasiliensis": {"test_system": "A. brasiliensis", "test": "Zone of inhibition assay", "assay_type": "cell-based, Aspergillus brasiliensis", "settings": "20 μL per 6 mm disk, 72 hrs, n = 3", "method": "as §1, §2, §3\n(§5) A zone of inhibition assay was used for A. brasiliensis and C. albicans. SDA was used as the plated medium. Inocula at 10^5 cfu/ml were prepared and counted using a Petroff-Hausser counting chamber. The diameter of no growth around a 6 mm blank disk after incubation at 25° C. for 72 hrs was compared to the untreated control. 20 μL of treatment was applied to each disk in triplicate. 10% DMSO was used as the control."}, "C. albicans": {"test_system": "C. albicans", "test": "Zone of inhibition assay", "assay_type": "cell-based, Candida albicans", "settings": "20 μL per 6 mm disk, 72 hrs, n = 3", "method": "as §1, §2, §3, §5"}},
  "data": [
    {"compound": "CCCCCCCC(=O)O", "note": "[Caprylic Acid, octanoic acid]", "values": [
      {"measurement": "Minimum Inhibitory Concentration (MIC) to inhibit 90% growth, E. coli", "setting": "[1]", "result": 0.27, "unit": "%"},
      {"measurement": "Minimum Inhibitory Concentration (MIC) to inhibit 90% growth, C. albicans", "setting": "[2]", "result": 0.09, "unit": "%"},
      {"measurement": "Minimum Inhibitory Concentration (MIC) to inhibit 90% growth, S. aureus", "setting": "[3]", "result": 0.09, "unit": "%"},
      {"measurement": "Minimum Inhibitory Concentration (MIC) to inhibit 90% growth, P. aeruginosa", "setting": "[4]", "result": 0.90, "unit": "%"},
      {"measurement": "Minimum Inhibitory Concentration (MIC) to inhibit 90% growth, S. sanguinis", "setting": "[5]", "result": 0.09, "unit": "%"},
      {"measurement": "Minimum Inhibitory Concentration (MIC) to inhibit 90% growth, S. enterica", "setting": "Salmonella enterica", "result": 0.90, "unit": "%"},
      {"measurement": "Inhibition Diameter, A. brasiliensis", "setting": "A. brasiliensis; 0.9% treatment", "result": 0, "unit": "mm"},
      {"measurement": "Inhibition Diameter, A. brasiliensis", "setting": "A. brasiliensis; 2.7% treatment", "result": 0, "unit": "mm"},
      {"measurement": "Inhibition Diameter, A. brasiliensis", "setting": "A. brasiliensis; 4.5% treatment", "result": 0, "unit": "mm"},
      {"measurement": "Inhibition Diameter, C. albicans", "setting": "C. albicans; 0.45% treatment", "result": 3.5, "unit": "mm"},
      {"measurement": "Inhibition Diameter, C. albicans", "setting": "C. albicans; 0.9% treatment", "result": 4.5, "unit": "mm"},
      {"measurement": "Inhibition Diameter, C. albicans", "setting": "C. albicans; 2.7% treatment", "result": 24.5, "unit": "mm"}
    ]}
  ]
}
